We go through four compounds from article PMC12203697, “Bioactive constituents from the edible seaweed Halymenia hawaiiana (Rhodophyta)” (Pharmaceutical Biology, 2025).

By MIC is commonly meant the least concentration at which growth counts as inhibited.

The subject of one series is S. marcescent. Put plainly: Antibacterial MIC, broth microdilution with resazurin. The note with it: Serratia marcescens, Gram-negative, read-out: MIC. In kind it is cell-based, Serratia marcescens. From the text:
(§1) Methicillin-resistant Staphylococcus aureus (MRSA), methicillin-susceptible S. aureus (MSSA), and Gram-negative clinical isolates of bacteria [Escherichia coli (9637) and Serratia marcescens ATCC 13880] were used for this study. […] MSSA HBP10, MSSA LUU7, MSSA R113, S. aureus ONE9, and MSSA POB2 were isolated in Hawaiʻi (Gerken et al. [2021]). Mueller Hinton Broth (MHB, GTIN:00382902979630, Becton, Dickinson and Company, Franklin Lakes, NJ, USA) and Mueller Hinton Agar (MHA, GTIN:00382902252504, Becton, Dickinson and Company, Franklin Lakes, NJ, USA,) were used for bacterial inoculation. MRSA was a pathogen strain causing hospital-acquired infections in 1982. This strain easily acquires resistance to antibiotics, such as vancomycin. MSSA strains isolated from the Island of Hawaiʻi included: Honolʻii Beach Park (HBP10) carry the genes erm(C), aph(3′)-III, and mecA, which provide resistance to macrolide, aminoglycoside, and beta-lactam antibiotics, respectively; Wailuku River (LUU7) which contains the blaZ gene (beta-lactam resistance) (Gerken et al. [2021]). Richardson’s Beach Park (R113) and Onekahakaha (ONE9) which is known for its virulence factors (hlgA, hlgB, hlgC, lukD, and lukE).
(§2) The minimum inhibitory concentrations (MICs) were determined using a two-fold serial dilution method with MHB following the recommendations of the Clinical and Laboratory Standards Institute (CLSI [2012]; Elshikh et al. [2016]). In brief, serial two-fold dilutions of the samples in DMSO were mixed with MHB in a 96-well microplate. Then, 50 µL of bacteria suspension was added to each well, resulting in a final concentration of 1 × 10^4 colony-forming units/well. The plates were incubated at 35–37 °C for 18–24 hr. After incubation, 10 µL of 0.18% resazurin (Cat. No. R7017, Sigma-Aldrich, USA) was added to each well (Elshikh et al. [2016]). The MIC was assessed within 2–3 hr after the addition of resazurin. All antimicrobial assays were performed in triplicate, using vancomycin (Cat. No. SBR00001, Sigma-Aldrich, USA) and gentamicin (Cat. No. G1397, Sigma-Aldrich, USA) as standard controls.
In general terms: Dilution methods test growth across graded concentrations, often in twofold steps.

The next series concerns S. aureus CART817. Described as above. Format: cell-based. The note with it: Staphylococcus aureus; S. aureus CART817, Gram-positive; read-out: MIC. Here is the method: as §2
The test system of a further series is MRSA USA300. The description is as above. In kind it is cell-based. The note with it: Staphylococcus aureus; MRSA USA300, Gram-positive; read-out: MIC.
Source text: as §1, §2

A further series deals with MSSA LUU7. The series is described as above. In kind it is cell-based. The note with it: Staphylococcus aureus; MSSA LUU7, Gram-positive; read-out: MIC.
Source text: as §1, §2

For the next series, the system named is MSSA R113. Described as above. In kind it is cell-based. The settings on record: Staphylococcus aureus; MSSA R113, Gram-positive; read-out: MIC.
Source text: as §1, §2

The next series relates to S. aureus ONE9. The series is described as above. Format: cell-based. The settings on record: Staphylococcus aureus; S. aureus ONE9, Gram-positive; read-out: MIC.
Source text: as §1, §2

The next series relates to S. aureus 8325-4. The series is described as above. In kind it is cell-based. The note with it: Staphylococcus aureus, 83254; S. aureus 8325-4, Gram-positive; read-out: MIC.
Source text: as §1, §2

The test system of the next series is E. coli. The series is described as above. In kind it is cell-based. The note with it: Escherichia coli, Gram-negative.
Source text: as §1, §2

For series [1], the system named is A549 human lung carcinoma epithelial cells. Put plainly: SRB cytotoxicity assay, A549 cells. The note with it: for Selectivity Index (SI): A549 (cancerous) versus NIH/3T3 (non-cancerous), SRB 72 h; for IC50: Homo sapiens, A549, 72 h, read-out: IC50, cytotoxicity against A549 cells. As for the experimental part:
After incubation, cells were fixed with trichloroacetic acid (Cat. No. T4885, Sigma-Aldrich, USA), stained with SRB (Cat. No. S9012, Sigma-Aldrich, USA), and the absorbance was measured at 515 nm. Percent cell death was calculated using the following equation: % Cell death=(ODc−OD0)‐(ODs−OD0)/(ODc−OD0)×100
(§3) OD0 = Optical density of cells before treatment (baseline reading).
ODC = Optical density of untreated control cells after 72 h.
ODS = Optical density of cells treated with the test sample after 72 h.
Non-linear regression analysis was performed using GraphPad Prism to calculate the IC50 value. This value reflects the concentration needed to inhibit cell growth by 50%.
All data are presented as mean ± standard error of the mean (SEM) and were collected from three separate experiments. Statistical analyses were conducted using Student’s t-test or ANOVA, followed by Tukey’s multiple comparisons test. Significance is indicated by *p < 0.05, **p < 0.01, and ***p < 0.001.
Background: Sulforhodamine B stains cellular protein and so reports cell mass.

For series [2], the system named is ROS/RNS generation in RAW 264.7 cells. Nature of the series: Intracellular ROS/RNS levels in LPS-induced RAW 264.7 cells (H2DCF-DA). In kind it is cell-based. The note with it: Mus musculus. Here is the method:
To measure the formation of intracellular ROS and RNS, we utilized the fluorogenic dye 2′,7′-dichlorodihydrofluorescein diacetate (Cat. No. 4091-99-0, H2DCF-DA, Abcam, Boston, MA, USA). This dye detects hydrogen peroxide, peroxyl radicals, and peroxynitrite anions (Kwon et al. [2019]). In brief, RAW 264.7 cells were seeded into a black 96-well plate (Cat. No. 165305, Thermo Fisher, USA) at 4 × 10^4 cells per well and incubated for 24 hr at 37 °C in 5% CO2. Afterward, the cells were treated with or without a sample for 4 hr before adding 1 μg/mL LPS (Cat. No. 00-4976-93, Thermo Fisher, USA) for 20 hr. Once this incubation was complete, the cells were washed twice with fetal bovine serum (FBS)-free media (Cat. No. A5256701, Thermo Fisher, USA) and stained with 10 μM H2DCF-DA (Cat. No. D399, Thermo Fisher, USA) in FBS-free media for 30 min at 37 °C, protected from light. Next, the dye-containing media was discarded, and the cells were washed twice with fresh serum-free media. The relative fluorescent intensity of the cells was measured using a fluorescence plate reader (Synergy H1, BioTeK, Winooski, VT, USA) with excitation/emission at 485 nm/535 nm. Curcumin (Cat. No. C1386-5G, Millipore Sigma, Burlington, MA, USA), a natural phenolic compound with antioxidant activity, was used as positive control. All samples were tested in triplicates. A sulforhodamine B (SRB) assay was conducted to assess cellular viability under a similar experimental setup. The final percentage of inhibition of ROS/RNS generation was calibrated using the % of cell viability.

Series [3] is described as follows: SRB cytotoxicity assay, NIH/3T3 cells. In kind it is cell-based, murine. The settings on record: mouse, NIH/3T3 fibroblasts (non-tumorigenic).
Source text: as §3

Setting [4] is: RAW264.7, read-out: IC50, inhibition of LPS-induced ROS/RNS generation.

Molecules are shown by their SMILES. Converted amounts (≈) assume the structure as drawn. Read-outs that look alike come from different tables or passages of the source.

Turning to `Nc1ccn([C@H]2C[C@H](O)[C@@H](CO)O2)c(=O)n1` [Compound 1, deoxycytidine], the MIC in the series with S. marcescent, in the series with S. aureus CART817, with MRSA USA300, in the series on MSSA LUU7, with MSSA R113 and with S. aureus ONE9 was 128 µg/mL (≈ 563 µM) in each case. Also, the MIC with S. aureus 8325-4 and in the series on E. coli was 128 µg/mL (≈ 563 µM) throughout. In addition, the “cytotoxic response against A549 cells (in words)” value in series [1] (SRB assay, 72 h, highest concentration tested 100 µg/ml) is recorded as “no cytotoxic response”.

Consider `CC(C)CCC[C@@H](C)[C@H]1CC[C@H]2[C@@H]3CC=C4C[C@@H](O)CC[C@]4(C)[C@H]3CC[C@]12C` [Compound 9, cholesterol], for which the MIC in the series on S. marcescent, in the series with S. aureus CART817, with MRSA USA300, in the series with MSSA LUU7, in the series with MSSA R113 and with S. aureus ONE9 was 128 µg/mL (≈ 331 µM) each time. Further, the MIC with S. aureus 8325-4 and in the series on E. coli was 128 µg/mL (≈ 331 µM) in each case. Further, the IC50 in series [2] (RAW264.7, RAW 264.7 cells, H2DCF-DA dye, LPS 1 μg/mL, read-out: IC50, inhibition of LPS-induced ROS/RNS generation) worked out at 55 ± 4.1 µM; in series [1] it was 176 ± 5.3 µM. In addition, in [1], the “Selectivity Index (SI)” value is listed as 1.03. In [3], this compound showed an IC50 at 72 h of 181 ± 8.04 µM.

For `CC(C)CCC[C@@H](C)[C@H]1CCC2[C@@]34C=C[C@]5(C[C@@H](O)CC[C@]5(C)C3CC[C@@]21C)OO4` (stereo partly drawn) [Compound 10, 7-dehydrochoresterol peroxide], the MIC amounted to 64 µg/mL (≈ 154 µM) with S. marcescent; 128 µg/mL (≈ 307 µM) in the series with S. aureus CART817; 128 µg/mL (≈ 307 µM) with MRSA USA300; 128 µg/mL (≈ 307 µM) with MSSA LUU7; 128 µg/mL (≈ 307 µM) in the series with MSSA R113; 128 µg/mL (≈ 307 µM) in the series on S. aureus ONE9. For the same compound, the MIC in the series on S. aureus 8325-4 and in the series on E. coli was 128 µg/mL (≈ 307 µM) throughout. For the same compound, the values for the IC50 in series [2] (setting [4]) and in series [1] were 65 ± 4.8 µM and 86.1 µM, respectively. In series [1], the “Selectivity Index (SI)” value is 1.12. Besides, the IC50 at 72 h in series [3] came out at 96.6 ± 4.34 µM.

For `CC(C)CCC[C@@H](C)[C@H]1CCC2[C@]1(C)CC=C1[C@]23C=C[C@]2(C[C@@H](O)CC[C@]12C)OO3` (stereo partly drawn) [Compound 11, (3β-5α-8α)5,8-epidioxycholesta-6,9(1)-diene-3-ol], the MIC with S. marcescent was 64 µg/mL (≈ 154 µM); in the series on S. aureus CART817, 128 µg/mL (≈ 309 µM); in the series on MRSA USA300, 128 µg/mL (≈ 309 µM); in the series with MSSA LUU7, 128 µg/mL (≈ 309 µM); in the series on MSSA R113 it was 128 µg/mL (≈ 309 µM); with S. aureus ONE9 it was 128 µg/mL (≈ 309 µM). Also, the MIC with S. aureus 8325-4 and against E. coli was 128 µg/mL (≈ 309 µM) throughout. Besides, the IC50 in [2] (setting [4]) was found to be 73.7 ± 6.2 µM; in series [1] it was 137 ± 4.4 µM. Moreover, the “Selectivity Index (SI)” value in series [1] was determined as 1.05. This compound showed an IC50 at 72 h in series [3] of 144 ± 6.15 µM.
